According to patent publication US9867372B2, “Tetrazolinone compound and use of same” (SUMITOMO CHEMICAL COMPANY, LIMITED, priority 2013, dated 2018):

Test system: cucumber powdery mildew fungus (Sphaerotheca fuliginea, a QoI-resistant strain, cytochrome b position 143 mutated from glycine to alanine)
Assay type: in vivo
Conditions: 200 ppm, QoI-resistant strain (Test Example 2, Comparative Example 2)

With Cn1nnn(-c2ccccc2COc2cccc(-c3ccccc3)c2)c1=O [1-[2-(biphenyl-3-yloxymethyl)-phenyl]-4-methyl-1,4-dihydrotetrazol-5-one] the “area of lesion spots on the treated plant relative to that on an untreated plant” value was at least 70%.
